The text below walks through data of patent US6372194B1, “MRI contrast media recognizing minor environmental changes” (Nihon Schering K.K., priority 1997, dated 2002).

A short description of this assay: Proton relaxing times (T1, T2) and proton relaxivity, Minispec 20 MHz, 40° C. Format: physicochemical. The following applies: for T1 relaxing time / T2 relaxing time: 20 MHz, 40° C. Here is the method:
The proton relativity of poly[Gd(DTPA-PDA)2]35 and poly[Gd(DTPA-PDA)5]14 obtained in Example 1 was compared with that of conventional MRI contrast medium. As the conventional MRI contrast medium, used was Gd-DTPA (Magnevist). The proton relaxivity was determined by using Minispec (NMS 120/125/10VTS, manufactured by Japan Bruker) at frequency at 20 MHz and temperature at 40° C. T1 was determined using an IR (inversion recovery) method under the conditions of initial τ of 2 ms, τ magnification of 1.7 and determination points of 20. T2 was determined using a CPMG (Carr-Purcell-Meiboon-Gill) method under the conditions of τ of 1 ms and determination points of 50.
Respective proton relaxing times (T1 and T2) are shown in Table 1, and the proton relaxivity (R1 and R2) calculated from said proton relaxing time are shown in Table 2.

On to `O=C([O-])CN(CCN(CC(=O)[O-])CC(=O)O)CCN(CC(=O)[O-])CC(=O)O.[Gd+3]` [Gd-DTPA], for which the T1 relaxing time runs as follows: (Gd concentration 0.1 mM) 1503 ms; (Gd concentration 1 mM) 247 ms; (Gd concentration 5 mM) 53 ms; (Gd concentration 10 mM) 26 ms. Also, the T2 relaxing time runs as follows: (Gd concentration 0.1 mM) 1339 ms; (Gd concentration 1 mM) 220 ms; (Gd concentration 5 mM) 47 ms; (Gd concentration 10 mM) 24 ms. For the same compound, for the setting “calculated from proton relaxing time”, the “proton relaxivity R1” value is recorded as 3.81 1 mmol^−1 sec^−1.
